In assay [1] the target is Aldo-keto reductase family 1 member B1 (Rattus norvegicus, UniProt P07943). Nature of the assay: In vitro inhibitory activity against aldose reductase (ALR2) from rat lens extraction.
For assay [2], the target named is T1, Aldo-keto reductase family 1 member A1 (Rattus norvegicus, UniProt P51635).
T1 sequence (P51635 whole entry): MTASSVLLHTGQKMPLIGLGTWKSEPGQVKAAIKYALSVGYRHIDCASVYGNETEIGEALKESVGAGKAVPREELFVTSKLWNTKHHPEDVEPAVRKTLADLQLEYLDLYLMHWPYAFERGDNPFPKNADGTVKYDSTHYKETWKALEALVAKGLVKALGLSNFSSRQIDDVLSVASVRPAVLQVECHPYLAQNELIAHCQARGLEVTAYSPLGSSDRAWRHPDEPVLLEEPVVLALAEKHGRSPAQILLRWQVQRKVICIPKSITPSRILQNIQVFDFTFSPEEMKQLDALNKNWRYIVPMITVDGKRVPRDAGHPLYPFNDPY
The assay can be described thus: In vitro inhibitory activity against aldehyde reductase 1 (ALR1) from rat kidney.

Assay [3] addresses T2, Glutathione reductase (Saccharomyces cerevisiae S288c, UniProt P41921).
T2 sequence (P41921 whole entry): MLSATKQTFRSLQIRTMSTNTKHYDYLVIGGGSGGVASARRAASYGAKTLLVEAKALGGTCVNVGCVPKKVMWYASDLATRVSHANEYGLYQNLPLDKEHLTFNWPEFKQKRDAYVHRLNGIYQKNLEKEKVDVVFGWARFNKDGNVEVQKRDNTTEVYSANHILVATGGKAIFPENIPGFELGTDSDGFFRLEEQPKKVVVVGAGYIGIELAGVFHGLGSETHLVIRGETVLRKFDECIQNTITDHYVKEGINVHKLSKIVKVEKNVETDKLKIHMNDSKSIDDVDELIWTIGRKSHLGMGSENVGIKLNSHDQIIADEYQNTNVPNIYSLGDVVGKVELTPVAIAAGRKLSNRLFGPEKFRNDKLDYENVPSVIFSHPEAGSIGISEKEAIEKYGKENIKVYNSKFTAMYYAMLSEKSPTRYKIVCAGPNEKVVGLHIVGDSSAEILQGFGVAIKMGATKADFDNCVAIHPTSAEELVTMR
Nature of the assay: In vitro inhibitory activity against glutathione reductase (GR) from bakers yeast; Not active.

Assay [4] can be described thus: In vitro inhibitory activity against sorbitol dehydrogenase (SD) from sheep liver; Not active.
For assay [5], the species on record is Rattus norvegicus. Nature of the assay: Ability to prevent cataract development in severly galactosemic rat treated with 3 percent ophthalmic solution on day 20. The assay is classed as functional.
For assay [6], the species on record is Rattus norvegicus. Nature of the assay: Ability to prevent cataract development in severly galactosemic rat treated with 3 percent ophthalmic solution on day 21. The assay is classed as functional.
The species entered for assay [7] is Rattus norvegicus. The assay can be described thus: Ability to prevent cataract development in severly galactosemic rat treated with 1 percent ophthalmic solution on day 20. The class given is functional.
The species named for assay [8] is Rattus norvegicus. The assay can be described thus: Ability to prevent cataract development in severly galactosemic rat treated with 1 percent ophthalmic solution on day 21. The class given is functional.
Assay [9] is filed under the species Rattus norvegicus. Nature of the assay: Ability to prevent cataract development in severly galactosemic rat treated with 3 percent ophthalmic solution on day 11. The assay is classed as functional.
The species entered for assay [10] is Rattus norvegicus. Nature of the assay: Ability to prevent cataract development in severly galactosemic rat treated with 3 percent ophthalmic solution on day 12. The assay is classed as functional.
For assay [11], the species on record is Rattus norvegicus. The assay can be described thus: Ability to prevent cataract development in severly galactosemic rat treated with 3 percent ophthalmic solution on day 13. The assay is classed as functional.
For assay [12], the species on record is Rattus norvegicus. The assay can be described thus: Ability to prevent cataract development in severly galactosemic rat treated with 3 percent ophthalmic solution on day 14. The assay is classed as functional.
The species entered for assay [13] is Rattus norvegicus. The assay can be described thus: Ability to prevent cataract development in severly galactosemic rat treated with 3 percent ophthalmic solution on day 16. The assay is classed as functional.
The species entered for assay [14] is Rattus norvegicus. The assay can be described thus: Ability to prevent cataract development in severly galactosemic rat treated with 3 percent ophthalmic solution on day 17. The assay is classed as functional.
The species named for assay [15] is Rattus norvegicus. The assay can be described thus: Ability to prevent cataract development in severly galactosemic rat treated with 3 percent ophthalmic solution on day 18. The class given is functional.
Assay [16] is filed under the species Rattus norvegicus. Nature of the assay: Ability to prevent cataract development in severly galactosemic rat treated with 3 percent ophthalmic solution on day 19. The assay is classed as functional.
The species entered for assay [17] is Rattus norvegicus. The assay can be described thus: Ability to prevent cataract development in severly galactosemic rat treated with 1 percent ophthalmic solution on day 11. The class given is functional.
For assay [18], the species on record is Rattus norvegicus. Nature of the assay: Ability to prevent cataract development in severly galactosemic rat treated with 1 percent ophthalmic solution on day 12. The assay is classed as functional.
For assay [19], the species on record is Rattus norvegicus. The assay can be described thus: Ability to prevent cataract development in severly galactosemic rat treated with 1 percent ophthalmic solution on day 13. The assay is classed as functional.
Assay [20] is filed under the species Rattus norvegicus. The assay can be described thus: Ability to prevent cataract development in severly galactosemic rat treated with 1 percent ophthalmic solution on day 14. The assay is classed as functional.
For assay [21], the species on record is Rattus norvegicus. Nature of the assay: Ability to prevent cataract development in severly galactosemic rat treated with 1 percent ophthalmic solution on day 15. The class given is functional.
Assay [22] is filed under the species Rattus norvegicus. Nature of the assay: Ability to prevent cataract development in severly galactosemic rat treated with 1 percent ophthalmic solution on day 16. The class given is functional.
For assay [23], the species on record is Rattus norvegicus. The assay can be described thus: Ability to prevent cataract development in severly galactosemic rat treated with 1 percent ophthalmic solution on day 17. The class given is functional.
The species entered for assay [24] is Rattus norvegicus. Nature of the assay: Ability to prevent cataract development in severly galactosemic rat treated with 1 percent ophthalmic solution on day 18. The assay is classed as functional.
The species named for assay [25] is Rattus norvegicus. The assay can be described thus: Ability to prevent cataract development in severly galactosemic rat treated with 1 percent ophthalmic solution on day 19. The assay is classed as functional.
The species named for assay [26] is Rattus norvegicus. The assay can be described thus: Ability to prevent cataract development in severly galactosemic rat treated with 3 percent ophthalmic solution on day 15. The class given is functional.
Assay [27] addresses T2, Glutathione reductase. Nature of the assay: In vitro inhibitory activity against glutathione reductase (GR) from bakers yeast.

Several values for one entry are separate records, joined by “and”; a condition that tells them apart may be missing. Equal values may be shown once.

`N#CC(C(=O)O)C1C(=O)N(Cc2ccc(F)cc2)c2ccccc21` (centres undefined): the midpoint of inhibition in assay [1], the IC50, lay at 570 nM.

For the compound `N#CC(C(=O)O)C1C(=O)N(Cc2ccc(C(F)(F)F)cc2)c2ccc(F)cc21` (centres undefined), the IC50 in assay [1] is 280 nM.

In the case of `CCCN1C(=O)C(C(C#N)C(=O)O)c2cc(F)ccc21` (centres undefined), half-maximal inhibition in assay [1] (IC50) was put at 280 nM.

`Cc1ccc(CN2C(=O)C(C(C#N)C(=O)O)c3cc(Br)ccc32)cc1` (centres undefined) returned an IC50 in [1] of 250 nM.

As for `N#CC(C(=O)O)C1C(=O)Nc2ccc(F)cc21` (centres undefined), the IC50 was 280 nM in assay [1], 6790 nM in assay [2], “Not Active” against Glutathione reductase [3] and “Not Active” in assay [4].

As for `N#CC(C(=O)O)C1C(=O)Nc2ccccc21` (centres undefined), in assay [1], the IC50 is 850 nM.

`N#CC(C(=O)O)C1C(=O)N(Cc2ccccc2)c2ccccc21` (centres undefined) showed an IC50 in assay [1] of 3200 nM.

For `N#CC(C(=O)O)C1C(=O)N(Cc2ccc(C(F)(F)F)cc2)c2ccccc21` (centres undefined), the IC50 in assay [1] is 570 nM.

For the compound `CN1C(=O)C(C(C#N)C(=O)O)c2cc(F)ccc21` (centres undefined), in assay [1], the IC50 came out at 390 nM.

In assay [1], `N#CC(C(=O)O)C1C(=O)N(Cc2ccccc2)c2ccc(F)cc21` (centres undefined) returned an IC50 of 180 nM.

`N#CC(C(=O)O)C1C(=O)Nc2ccc([N+](=O)[O-])cc21` (centres undefined) displayed an IC50 in assay [1] of 1200 nM.

For the compound `COc1ccc2c(c1)C(C(C#N)C(=O)O)C(=O)N2` (centres undefined), in assay [1], the IC50 worked out at 5400 nM.

Consider `N#CC(C(=O)O)C1C(=O)N(Cc2ccc(F)cc2)c2ccc(F)cc21` (centres undefined), for which the IC50 in assay [1] is 130 nM and 58 nM; in assay [2], 490 nM; on Glutathione reductase [3] it was “Not Active”; in assay [4] it was “Not Active”.

In [1], `COc1ccc(CN2C(=O)C(C(C#N)C(=O)O)c3cc(F)ccc32)cc1` (centres undefined) returned an IC50 of 110 nM.

As for `COc1ccc2c(C(=S)N(C)CC(=O)O)cccc2c1C(F)(F)F` [TOLRESTAT], the IC50 is 46 nM in [1], “Not Active” in assay [2] and “Not Active” against Glutathione reductase [3]. Moreover, the Nuclear cataract in the assay listed under Rattus norvegicus [5] is 0%; in the assay filed under Rattus norvegicus [6] it was 0%; in the assay filed under Rattus norvegicus [7] it was 47%; in the assay filed under Rattus norvegicus [8] it was 47%; in the assay filed under Rattus norvegicus [9] it was 0%; in the assay filed under Rattus norvegicus [10], 0%. In addition, the Nuclear cataract in the assay listed under Rattus norvegicus [11], in the assay filed under Rattus norvegicus [12], in the assay listed under Rattus norvegicus [13], in the assay filed under Rattus norvegicus [14], in the assay listed under Rattus norvegicus [15] and in the assay filed under Rattus norvegicus [16] was 0% in each case. Also, the Nuclear cataract is on record as 0% in the assay filed under Rattus norvegicus [17]; 0% in the assay filed under Rattus norvegicus [18]; 0% in the assay listed under Rattus norvegicus [19]; 23% in the assay listed under Rattus norvegicus [20]; 32% in the assay filed under Rattus norvegicus [21]; 32% in the assay filed under Rattus norvegicus [22]. The Nuclear cataract turned out to be 32% in the assay listed under Rattus norvegicus [23], 43% in the assay listed under Rattus norvegicus [24], 43% in the assay listed under Rattus norvegicus [25] and 0% in the assay listed under Rattus norvegicus [26].

`Cc1ccc(CN2C(=O)C(C(C#N)C(=O)OC(C)C)c3cc(F)ccc32)cc1` (centres undefined): the Nuclear cataract in the assay listed under Rattus norvegicus [5] came out at 8%; in the assay filed under Rattus norvegicus [6], 8%; in the assay listed under Rattus norvegicus [9] it was 0%; in the assay filed under Rattus norvegicus [10], 0%; in the assay listed under Rattus norvegicus [11], 0%; in the assay filed under Rattus norvegicus [12], 0%. The Nuclear cataract is listed as 0% in the assay listed under Rattus norvegicus [13]; 0% in the assay listed under Rattus norvegicus [14]; 0% in the assay filed under Rattus norvegicus [15]; 8% in the assay filed under Rattus norvegicus [16]; 0% in the assay filed under Rattus norvegicus [26].

`O=c1c(O)c(-c2ccc(O)c(O)c2)oc2cc(O)cc(O)c12` [QUERCETIN] returned an IC50 against Glutathione reductase [27] of 48800 nM.

With `Cc1ccc(CN2C(=O)C(C(C#N)C(=O)O)c3ccccc32)cc1` (centres undefined), the IC50 in [1] is 640 nM and 460 nM; in assay [2], 3570 nM; on Glutathione reductase [3], “Not Active”; in assay [4], “Not Active”.

`Cc1ccc(CN2C(=O)C(C(C#N)C(=O)O)c3cc(F)ccc32)cc1` (centres undefined): the IC50 in assay [1] was 75 nM and 42 nM; in [2] it was 690 nM; against Glutathione reductase [3], “Not Active”. Also, the Nuclear cataract is 96% in the assay listed under Rattus norvegicus [5]; 100% in the assay filed under Rattus norvegicus [6]; 0% in the assay filed under Rattus norvegicus [9]; 0% in the assay listed under Rattus norvegicus [10]; 0% in the assay listed under Rattus norvegicus [11]; 18% in the assay filed under Rattus norvegicus [12]. The Nuclear cataract turned out to be 57% in the assay filed under Rattus norvegicus [13]; 57% in the assay filed under Rattus norvegicus [14]; 72% in the assay listed under Rattus norvegicus [15]; 84% in the assay filed under Rattus norvegicus [16]; 43% in the assay listed under Rattus norvegicus [26].

Regarding `N#CC(C(=O)O)C1C(=O)N(CCCl)c2ccc(F)cc21` (centres undefined), the midpoint of inhibition in [1], the IC50, lay at 1340 nM.

For `O=C1NC(=O)[C@@]2(CCOc3ccc(F)cc32)N1` [SORBINIL], the 50% inhibitory concentration (IC50) result at Glutathione reductase [3] was “Not Active”.

In assay [1], `COc1ccc(CN2C(=O)C(C(C#N)C(=O)O)c3ccccc32)cc1` (centres undefined) gave an IC50 of 630 nM.

Regarding `N#CC(C(=O)O)C1C(=O)Nc2ccc(Br)cc21` (centres undefined), in assay [1], 380 nM corresponded to half-maximal inhibition (IC50).

For the origin of these results see ChEMBL document CHEMBL1136757 (J Med Chem, 2003).
